Assays:
Test in all cases: KinaseProfiler panel
Type in all cases: biochemical
Conditions in all cases: activity remaining
ATM(h) = ATM(h) (Homo sapiens (Human), UniProt Q13315); parameters: dose or concentration left out as unconfirmed
Bmx(h) = Bmx(h) (Homo sapiens (Human), UniProt P51813); parameters: dose or concentration left out as unconfirmed
CaMKIIβ(h) = CaMKIIβ(h) (Homo sapiens (Human), UniProt Q13554); parameters: dose or concentration left out as unconfirmed
CK1γ1(h) = CK1γ1(h) (Homo sapiens (Human), UniProt Q9HCP0); parameters: dose or concentration left out as unconfirmed
CLK1(h) = CLK1(h) (Homo sapiens (Human), UniProt P49759); parameters: dose or concentration left out as unconfirmed
CLK3(h) = CLK3(h) (Homo sapiens (Human), UniProt P49761); parameters: dose or concentration left out as unconfirmed
CSK(h) = CSK(h) (Homo sapiens (Human), UniProt P41240); parameters: dose or concentration left out as unconfirmed
DAPK2(h) = DAPK2(h) (Homo sapiens (Human), UniProt Q9UIK4)
DDR2(h) = DDR2(h) (Homo sapiens (Human), UniProt Q16832); parameters: dose or concentration left out as unconfirmed
FGFR3(h) = FGFR3(h) (Homo sapiens (Human), UniProt P22607); parameters: dose or concentration left out as unconfirmed
Fms(h) = Fms(h) (Homo sapiens (Human), UniProt P07333); parameters: dose or concentration left out as unconfirmed
GRK3(h) = GRK3(h) (Homo sapiens (Human), UniProt P35626); parameters: dose or concentration left out as unconfirmed
GRK5(h) = GRK5(h) (Homo sapiens (Human), UniProt P34947); parameters: dose or concentration left out as unconfirmed
JAK3(h) = JAK3(h) (Homo sapiens (Human), UniProt P52333); parameters: dose or concentration left out as unconfirmed
JNK3(h) = JNK3(h) (Homo sapiens (Human), UniProt P53779); parameters: dose or concentration left out as unconfirmed
MRCKα(h) = MRCKα(h) (Homo sapiens (Human), UniProt Q5VT25); parameters: dose or concentration left out as unconfirmed
MSSK1(h) = MSSK1(h) (Homo sapiens (Human), UniProt Q9UPE1)
NEK3(h) = NEK3(h) (Homo sapiens (Human), UniProt P51956); parameters: dose or concentration left out as unconfirmed
NIM1(h) = NIM1(h) (Homo sapiens (Human), UniProt Q8IY84); parameters: dose or concentration left out as unconfirmed
NLK(h) = NLK(h) (Homo sapiens (Human), UniProt Q9UBE8)
PAK4(h) = PAK4(h) (Homo sapiens (Human), UniProt O96013); parameters: dose or concentration left out as unconfirmed
PDGFRβ(h) = PDGFRβ(h) (Homo sapiens (Human), UniProt P09619); parameters: dose or concentration left out as unconfirmed
PhKγ1(h) = PhKγ1(h) (Homo sapiens (Human), UniProt Q16816); parameters: dose or concentration left out as unconfirmed
Pim-2(h) = Pim-2(h) (Homo sapiens (Human), UniProt Q9P1W9); parameters: dose or concentration left out as unconfirmed
PKCα(h) = PKCα(h) (Homo sapiens (Human), UniProt P17252); parameters: dose or concentration left out as unconfirmed
PKD3(h) = PKD3(h) (Homo sapiens (Human), UniProt O94806); parameters: dose or concentration left out as unconfirmed
Ros(h) = Ros(h) (Homo sapiens (Human), UniProt P08922); parameters: dose or concentration left out as unconfirmed
SNRK(h) = SNRK(h) (Homo sapiens (Human), UniProt Q9NRH2); parameters: dose or concentration left out as unconfirmed
STK33(h) = STK33(h) (Homo sapiens (Human), UniProt Q9BYT3); parameters: dose or concentration left out as unconfirmed
TAK1(h) = TAK1(h) (Homo sapiens (Human), UniProt O43318); parameters: dose or concentration left out as unconfirmed
TrkC(h) = TrkC(h) (Homo sapiens (Human), UniProt Q16288); parameters: dose or concentration left out as unconfirmed
Txk(h) = Txk(h) (Homo sapiens (Human), UniProt P42681); parameters: dose or concentration left out as unconfirmed
ZIPK(h) = ZIPK(h) (Homo sapiens (Human), UniProt O43293); parameters: dose or concentration left out as unconfirmed

Txk(h), sequence (P42681 whole entry): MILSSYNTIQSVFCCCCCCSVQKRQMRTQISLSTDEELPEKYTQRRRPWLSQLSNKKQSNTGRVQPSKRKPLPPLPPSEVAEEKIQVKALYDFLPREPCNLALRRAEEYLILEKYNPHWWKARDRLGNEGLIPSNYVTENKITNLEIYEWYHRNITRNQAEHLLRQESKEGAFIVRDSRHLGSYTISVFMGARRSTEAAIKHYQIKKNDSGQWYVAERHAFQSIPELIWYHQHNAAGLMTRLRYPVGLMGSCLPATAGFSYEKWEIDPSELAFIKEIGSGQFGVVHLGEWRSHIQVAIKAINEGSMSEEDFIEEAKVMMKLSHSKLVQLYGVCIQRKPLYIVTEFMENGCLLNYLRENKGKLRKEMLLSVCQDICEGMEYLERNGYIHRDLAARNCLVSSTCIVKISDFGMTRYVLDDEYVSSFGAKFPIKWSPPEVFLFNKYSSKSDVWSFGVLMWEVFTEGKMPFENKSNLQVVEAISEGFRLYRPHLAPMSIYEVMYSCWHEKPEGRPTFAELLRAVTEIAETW
SNRK(h), sequence (Q9NRH2 whole entry): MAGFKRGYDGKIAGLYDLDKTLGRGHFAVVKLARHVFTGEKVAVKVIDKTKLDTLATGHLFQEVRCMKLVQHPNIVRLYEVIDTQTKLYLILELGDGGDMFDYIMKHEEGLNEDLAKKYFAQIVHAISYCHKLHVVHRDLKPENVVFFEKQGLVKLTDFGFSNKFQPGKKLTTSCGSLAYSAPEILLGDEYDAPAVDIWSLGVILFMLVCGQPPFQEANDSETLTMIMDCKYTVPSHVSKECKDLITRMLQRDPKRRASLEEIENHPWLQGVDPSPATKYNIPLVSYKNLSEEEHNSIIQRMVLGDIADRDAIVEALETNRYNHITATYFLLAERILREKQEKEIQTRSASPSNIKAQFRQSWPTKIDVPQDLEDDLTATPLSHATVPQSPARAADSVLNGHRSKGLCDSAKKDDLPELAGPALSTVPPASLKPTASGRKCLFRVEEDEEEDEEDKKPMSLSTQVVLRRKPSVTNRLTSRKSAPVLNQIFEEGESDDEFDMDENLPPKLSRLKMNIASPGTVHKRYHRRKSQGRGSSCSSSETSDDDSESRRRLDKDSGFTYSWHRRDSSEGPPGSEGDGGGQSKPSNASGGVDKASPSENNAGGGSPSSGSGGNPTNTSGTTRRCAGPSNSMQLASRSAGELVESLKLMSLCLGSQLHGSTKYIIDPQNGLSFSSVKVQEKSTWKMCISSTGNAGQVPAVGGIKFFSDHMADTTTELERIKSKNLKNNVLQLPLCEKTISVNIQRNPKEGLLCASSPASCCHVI
MSSK1(h), sequence (Q9UPE1 whole entry): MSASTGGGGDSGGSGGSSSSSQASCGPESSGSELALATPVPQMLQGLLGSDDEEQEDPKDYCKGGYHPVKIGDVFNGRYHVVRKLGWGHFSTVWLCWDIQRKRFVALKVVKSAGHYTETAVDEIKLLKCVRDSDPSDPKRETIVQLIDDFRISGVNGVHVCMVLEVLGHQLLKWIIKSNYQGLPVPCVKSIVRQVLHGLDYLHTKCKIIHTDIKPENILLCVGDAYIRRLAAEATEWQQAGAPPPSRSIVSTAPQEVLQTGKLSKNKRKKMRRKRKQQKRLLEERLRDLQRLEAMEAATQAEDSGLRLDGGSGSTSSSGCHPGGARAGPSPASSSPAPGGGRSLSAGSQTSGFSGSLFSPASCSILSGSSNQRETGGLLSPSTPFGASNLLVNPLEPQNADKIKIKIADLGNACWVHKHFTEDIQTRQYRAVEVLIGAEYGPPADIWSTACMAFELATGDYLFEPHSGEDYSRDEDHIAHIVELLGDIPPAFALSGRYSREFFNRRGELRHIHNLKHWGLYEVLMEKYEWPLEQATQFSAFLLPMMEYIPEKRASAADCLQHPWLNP
NIM1(h), sequence (Q8IY84 whole entry): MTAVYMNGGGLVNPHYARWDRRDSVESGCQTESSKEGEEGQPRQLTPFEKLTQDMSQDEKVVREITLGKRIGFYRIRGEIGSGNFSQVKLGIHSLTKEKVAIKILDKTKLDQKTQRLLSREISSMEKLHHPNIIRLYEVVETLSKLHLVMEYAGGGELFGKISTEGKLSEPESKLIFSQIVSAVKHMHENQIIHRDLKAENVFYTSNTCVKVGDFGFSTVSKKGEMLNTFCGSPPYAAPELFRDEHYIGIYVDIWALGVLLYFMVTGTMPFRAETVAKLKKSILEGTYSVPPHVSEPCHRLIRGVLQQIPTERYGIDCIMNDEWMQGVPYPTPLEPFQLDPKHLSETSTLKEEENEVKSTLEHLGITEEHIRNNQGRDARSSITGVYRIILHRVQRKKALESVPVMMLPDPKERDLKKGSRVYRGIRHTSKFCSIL
GRK5(h), sequence (P34947 whole entry): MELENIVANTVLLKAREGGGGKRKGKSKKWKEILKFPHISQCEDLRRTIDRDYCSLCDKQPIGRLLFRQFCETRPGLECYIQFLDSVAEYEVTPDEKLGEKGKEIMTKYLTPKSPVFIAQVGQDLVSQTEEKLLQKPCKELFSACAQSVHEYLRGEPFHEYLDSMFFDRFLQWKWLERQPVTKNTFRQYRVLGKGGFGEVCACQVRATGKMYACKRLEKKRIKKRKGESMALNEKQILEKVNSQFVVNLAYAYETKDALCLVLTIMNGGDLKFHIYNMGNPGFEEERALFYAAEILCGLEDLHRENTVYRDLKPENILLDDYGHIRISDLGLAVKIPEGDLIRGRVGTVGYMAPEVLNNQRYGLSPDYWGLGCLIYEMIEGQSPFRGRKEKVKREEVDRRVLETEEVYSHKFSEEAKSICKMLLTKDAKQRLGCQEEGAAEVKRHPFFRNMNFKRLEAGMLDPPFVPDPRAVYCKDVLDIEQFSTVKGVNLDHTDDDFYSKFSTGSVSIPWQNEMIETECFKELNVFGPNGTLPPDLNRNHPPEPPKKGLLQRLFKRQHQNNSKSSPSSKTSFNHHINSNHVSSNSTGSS
STK33(h), sequence (Q9BYT3 whole entry): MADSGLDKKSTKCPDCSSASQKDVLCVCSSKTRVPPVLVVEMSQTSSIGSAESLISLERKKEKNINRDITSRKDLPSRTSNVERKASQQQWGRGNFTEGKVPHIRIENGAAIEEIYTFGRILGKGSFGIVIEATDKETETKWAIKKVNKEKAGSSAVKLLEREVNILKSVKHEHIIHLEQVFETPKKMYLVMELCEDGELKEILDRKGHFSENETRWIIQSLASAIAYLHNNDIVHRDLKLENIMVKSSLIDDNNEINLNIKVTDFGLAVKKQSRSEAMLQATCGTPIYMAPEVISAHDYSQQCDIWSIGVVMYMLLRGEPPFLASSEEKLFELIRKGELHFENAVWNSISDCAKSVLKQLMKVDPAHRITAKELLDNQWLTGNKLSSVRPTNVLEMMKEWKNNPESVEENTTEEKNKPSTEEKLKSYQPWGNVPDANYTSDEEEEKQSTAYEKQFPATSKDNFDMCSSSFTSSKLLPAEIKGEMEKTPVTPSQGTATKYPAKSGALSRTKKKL
CSK(h), sequence (P41240 whole entry): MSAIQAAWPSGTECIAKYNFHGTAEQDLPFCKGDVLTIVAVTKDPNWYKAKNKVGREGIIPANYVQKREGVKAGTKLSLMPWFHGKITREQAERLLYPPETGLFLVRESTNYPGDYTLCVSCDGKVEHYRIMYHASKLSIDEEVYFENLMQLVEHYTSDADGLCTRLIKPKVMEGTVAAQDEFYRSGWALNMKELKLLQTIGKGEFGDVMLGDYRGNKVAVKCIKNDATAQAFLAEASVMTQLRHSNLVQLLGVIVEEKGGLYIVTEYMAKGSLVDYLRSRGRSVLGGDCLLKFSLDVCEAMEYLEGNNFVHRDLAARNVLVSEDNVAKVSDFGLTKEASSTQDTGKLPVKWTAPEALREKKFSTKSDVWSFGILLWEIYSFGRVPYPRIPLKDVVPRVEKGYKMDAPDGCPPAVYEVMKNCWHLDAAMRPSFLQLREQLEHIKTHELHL
CLK1(h), sequence (P49759 whole entry): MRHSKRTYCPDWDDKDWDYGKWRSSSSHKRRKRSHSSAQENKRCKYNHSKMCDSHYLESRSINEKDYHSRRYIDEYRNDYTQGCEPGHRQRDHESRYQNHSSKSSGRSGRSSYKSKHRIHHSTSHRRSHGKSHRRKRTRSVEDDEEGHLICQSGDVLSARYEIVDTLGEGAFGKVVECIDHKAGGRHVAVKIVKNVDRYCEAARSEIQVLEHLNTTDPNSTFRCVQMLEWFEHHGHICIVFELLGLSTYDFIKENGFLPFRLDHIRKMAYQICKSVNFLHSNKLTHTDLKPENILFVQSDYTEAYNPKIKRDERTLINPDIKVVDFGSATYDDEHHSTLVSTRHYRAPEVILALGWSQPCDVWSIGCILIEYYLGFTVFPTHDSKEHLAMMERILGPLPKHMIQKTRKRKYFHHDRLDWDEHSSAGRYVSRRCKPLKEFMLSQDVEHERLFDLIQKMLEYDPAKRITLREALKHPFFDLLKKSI

## Cc1cc2c(-c3ccc(NC(=O)[C@H](N)CC(C)(C)C)cc3C)ccnc2[nH]1 [Compound F-90, (2R)-2-Amino-4,4-dimethyl-N-[3-methyl-4-(2-methyl-1H-pyrrolo[2,3-b]pyridin-4-yl)phenyl]pentanamide]
ATM(h)
  % Activity: 103%
Bmx(h)
  % Activity: 97%
CaMKIIβ(h)
  % Activity: 93%
CK1γ1(h)
  % Activity: 101%
CLK1(h)
  % Activity: 88%
CLK3(h)
  % Activity: 107%
CSK(h)
  % Activity: 92%
DAPK2(h)
  % Activity: 109%
DDR2(h)
  % Activity: 85%
FGFR3(h)
  % Activity: 86%
Fms(h)
  % Activity: 115%
GRK3(h)
  % Activity: 81%
GRK5(h)
  % Activity: 97%
JAK3(h)
  % Activity: 106%
JNK3(h)
  % Activity: 88%
MRCKα(h)
  % Activity: 94%
MSSK1(h)
  % Activity: 134%
NEK3(h)
  % Activity: 110%
NIM1(h)
  % Activity: 112%
NLK(h)
  % Activity: 98%
PAK4(h)
  % Activity: 83%
PDGFRβ(h)
  % Activity: 105%
PhKγ1(h)
  % Activity: 101%
Pim-2(h)
  % Activity: 117%
PKCα(h)
  % Activity: 92%
PKD3(h)
  % Activity: 97%
Ros(h)
  % Activity: 97%
SNRK(h)
  % Activity: 111%
STK33(h)
  % Activity: 98%
TAK1(h)
  % Activity: 91%
TrkC(h)
  % Activity: 86%
Txk(h)
  % Activity: 110%
ZIPK(h)
  % Activity: 94%

Source: patent US20250243196A1, “CITRON KINASE INHIBITORS” (The Cleveland Clinic Foundation, priority 2021, published 2025)
